In one series the test system is Caco-2 cell monolayers. Briefly: Caco-2 cell analysis: lercanidipine permeation with different concentrations of Polysorbate 80 (Tween 80). It is filed as in vitro ADME. An excerpt: The objective of this study was to investigate the effects of surfactant on the permeability characteristics of lercanidipine across Caco-2 cell monolayers. Caco-2 cell monolayers have been used as a model of intestinal mucosa for predicting oral drug absorption (P. Artursson. Epithelial transport of drugs in cell culture. I: A model for studying the passive diffusion of drugs over intestinal absorptive (Caco-2) cells. JPharm (1990)).
Transport experiments for the permeation characteristics of lercanidipine in the presence of different concentrations of Polysorbate 80 (Tween 80) were conducted as follows. […] The samples were collected and analyzed for lercanidipine.
The permeation characteristics lercanidipine across Caco-2 cell monolayers in the presence of different concentrations of Tween 80 were analyzed using four dosing solutions. […]
Papp values will be calculated using the equation: Papp=ΔQ/Δt/(A*C0) where ΔQ/Δt is the linear appearance rate of mass in the receiver solution, A is the filter/cell surface area (1 cm^2 for 12-well system), and C0 is the initial concentration of the test compounds.

The conditions of series [1]: cited from earlier work.
For series [2] the following is noted: cited from earlier work. This is another data set of the same source.
A further series concerns Caco-2 cell. The following applies: Caco-2 cell apparatus; cited from earlier work.
For series [3] the following is noted: species not given; cited from earlier work.

Take `COC(=O)C1=C(C)NC(C)=C(C(=O)OC(C)(C)CN(C)CCC(c2ccccc2)c2ccccc2)C1c1cccc([N+](=O)[O-])c1` (stereo not shown) [lercanidipine, methyl 1,1,N-trimethyl-N-(3,3-diphenylpropyl)-2-aminoethyl 1,4-dihydro-2,6-dimethyl-4-(3-nitrophenyl)pyridine-3,5-dicarboxylate]: in the series on Caco-2 cell monolayers (50 μg/ml Lerc in HBSS, pH 6.8, Tween 80 added vs none), the “increase in Caco-2 permeability upon the addition of surfactant” value is recorded as “three fold increase in permeability”. In addition, in the series on Caco-2 cell monolayers (surfactant in transport buffer increased ten fold from 0.02 to 0.2), the “change of Caco-2 permeability at higher surfactant” value was “permeability of lercanidipine decreases”. In addition, the solubility result in series [1] (at pH 5 and above) is “less than 20 μg/ml”. Moreover, the aqueous solubility entry in series [1] (water) is “about 5 μg/ml”. For the same molecule, the “time of peak plasma level following dosage” value in series [2] (oral administration) was 1 to 3 h. Also, the “increase of amount of lercanidipine absorbed with food” value in series [2] (simultaneous intake of food (especially high fat) vs administration without food) was “between three and four times”. Besides, in the series on Caco-2 cell, the Papp entry is “about 0.5×10^−7 cm/s”.
`COC(=O)C1=C(C)NC(C)=C(C(=O)OC(C)(C)CN(C)CCC(c2ccccc2)c2ccccc2)C1c1cccc([N+](=O)[O-])c1.Cl` (stereo not shown) [Form I]: in series [3], the “time to maximum concentration (Tmax), one form compared to the other” value was “shorter time to maximum concentration”.
For the molecule `COC(=O)C1=C(C)NC(C)=C(C(=O)OC(C)(C)CN(C)CCC(c2ccccc2)c2ccccc2)C1c1cccc([N+](=O)[O-])c1.Cl` (stereo not shown) [Form II], in series [3], the “plasma concentration (AUCo-t), Form II compared to Form I” value is given as “higher plasma concentration” and the “time to maximum concentration (Tmax), one form compared to the other” value was “delayed time of maximum concentration”.

The record behind these values is patent publication US20060134212A1, “Lercanidipine immediate release compositions” (Forest Laboratories, Inc., priority 2004, published 2006).
